Reference: paper PMC2118091 (The Journal of Experimental Medicine, 2006)

Assays:
IgM CM-22 [1] = experiment: SPR analysis of peptide binding to IgM CM-22; set-up: species or system mouse
IgM CM-22 [2] = experiment: Titration of P8 peptide with IgM CM-22; set-up: species or system mouse; conditions: 200 μg IgM CM-22 (0.1–0.2 μM); unpublished data
WT mice = experiment: Intestinal RI model in WT mice, pathology score; type: in vivo, mouse; conditions: final serum concentration, i.v. 5 min before reperfusion
[3] = test system: IgM, complement C4 and C3; experiment: Immunohistology of IgM, C4 and C3 deposition after intestinal RI in WT mice; type: in vivo, mouse; conditions: RI-treated WT mice given P8 peptide; unpublished data
complement C3 = conditions: pretreatment of rats, myocardial infarction model; cited from earlier work

For “AGCMPYVRIPTA [control peptide, reference compound]”, the “binding to IgM CM-22 surface” value (IgM CM-22 [1]; SPR, PBS, 25°C, control peptide injected at 117 μM) was “no binding”.

With NGNNVNGNRNNN [P8 peptide] the “optimal peptide concentration sufficient to block IgM CM-22” value (IgM CM-22 [2]) was ~10 µM, the “protective concentration in intestinal RI” value (WT mice) was 10 µM and the “IgM, C4 and C3 deposition within microvilli” value [3] was “colocalized within microvilli of RI-treated WT mice but not in mice administered P8 peptide”. The “CM-22 binding affinity relative to N2” value (IgM CM-22 [1]; comparison in words, no KD printed for P8) was “higher CM-22 binding affinity relative to N2”.

For “sCR1: specific soluble inhibitor of complement C3 (sCR1)”, the “myocardial injury” value (complement C3) is listed as “dramatically reduced injury”.
